Laboratory results from paper PMC11118615, “Cloning, Expression, Characterization and Immobilization of a Recombinant Carboxylesterase from the Halophilic Archaeon, Halobacterium salinarum NCR-1” (Biomolecules, 2024).

biological target: T1, rHsEst (recombinant carboxylesterase HsEst) (Halobacterium salinarum, UniProt Q9HPT9); assay: spectrophotometric p-nitrophenol release, Michaelis-Menten nonlinear fit; format: biochemical; details: free enzyme; pH 8.0 Tris-HCl, 1 M NaCl, 30 °C (methods print 25 °C)
T1 construct: gene est; synthetic gene in pTA1392, N-terminal 6xHis-tag, expressed in Haloferax volcanii H1209, HisTrap purified
Description: spectrophotometric p-nitrophenol release, Michaelis-Menten nonlinear fit on rHsEst (recombinant carboxylesterase HsEst)

T1 sequence (Q9HPT9 entry or part of it): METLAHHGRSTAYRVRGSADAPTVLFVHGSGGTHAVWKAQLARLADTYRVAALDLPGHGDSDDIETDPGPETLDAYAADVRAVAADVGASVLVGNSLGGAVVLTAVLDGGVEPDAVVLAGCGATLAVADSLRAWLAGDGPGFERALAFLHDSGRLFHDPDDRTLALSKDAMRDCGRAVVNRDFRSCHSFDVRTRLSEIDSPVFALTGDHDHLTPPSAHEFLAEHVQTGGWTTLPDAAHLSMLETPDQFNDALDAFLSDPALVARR

Km [µM]	SMILES
258 ± 51	CC(=O)Oc1ccc([N+](=O)[O-])cc1 [pNPC2, p-nitrophenyl acetate]
78 ± 7	CCCCC(=O)Oc1ccc([N+](=O)[O-])cc1 [pNPC5, p-nitrophenyl valerate]
245 ± 26	CCCCCCCC(=O)Oc1ccc([N+](=O)[O-])cc1 [pNPC8, p-nitrophenyl octanoate]
